Measured values published in US20180036382A1, “FORMULATIONS FOR ORAL ADMINISTRATION OF ACTIVE AGENTS WITH CONTROLLED ABSORPTION PROFILE” (Entera Bio Ltd., priority 2015, published 2018).

Legend:
Format in all cases: in vivo, human
[1] = tested on: cAMP, a known marker of PTH activity; experiment: Plasma cAMP levels after teriparatide administration (marker of PTH activity); details: FIG. 4
Method: In addition, plasma levels of cAMP, a known marker of PTH activity, were determined in order to confirm biological activity of administered PTH. cAMP plasma levels were measured following oral administration of 680 μg teriparatide or subcutaneous injection of 20 μg teriparatide, as described hereinabove.

[2] = Phase I clinical trial of oral teriparatide formulations, plasma PTH (1-34) versus subcutaneous injection (Example 2)
Method: A Phase I clinical study of exemplary oral formulations comprising teriparatide (parathyroid hormone (1-34)) was conducted at the Hadassah Clinical Research Center. 42 healthy volunteers were included throughout the study.
The formulation was composed of teriparatide (200, 400, 680, 1400 or 1800μ.g), SNAC (sodium 8-N-(2-hydroxybenzoyl) aminocaprylate), soybean trypsin inhibitor and magnesium stearate.
Tablets were administered in the morning after an 8-hour overnight fast and immediately followed by 150 ml of water. At each visit a standard meal was provided 3 hours after drug administration.
To determine parathyroid hormone concentrations, blood samples (4 ml each) were drawn via an indwelling catheter from the forearm vein at predetermined time points. The cannula was flushed with 1.5 ml normal saline after each sampling. In addition, to avoid sample dilution, 1 ml of blood was drawn and discarded before the next sample. The blood samples were taken at following times: baseline (predose), 15 minutes, 30 minutes, 45 minutes, 60 minutes, 75 minutes, 90 minutes, 105 minutes, 2 hours, 3 hours, 4 hours and 5 hours post-administration. Each blood sample was collected into a single tube containing EDTA (ethylenediaminetetraacetic acid) and placed on ice. Within 15 minutes of blood collection, samples were centrifuged for 10 minutes at 4° C. (2500 rotations per minute) and the plasma was separated and divided into two or three aliquots. Each aliquot was transferred into appropriately labeled polypropylene tubes and stored at approximately −20° C. pending analysis. PTH (1-34) levels were measured using an IDS-iSYS automated assay for the measurement of intact PTH (1-34) in human plasma or serum.
Oral administration of teriparatide was performed as described hereinabove at doses of 200, 400, 680, 1400 or 1800 μg. The Cmax of PTH (1-34) for each orally administered dose was compared with the Cmax of PTH (1-34) for subcutaneous injection of 20 μg teriparatide.

[3] = Pharmacokinetic study of oral teriparatide tablet in healthy volunteers (Example 1)
Method: An open label comparative pharmacokinetic study was performed in healthy volunteers over the course of 3 months. Each volunteer received—in each of two visits—the same oral tablet containing 0.75 mg of teriparatide, a recombinant form of parathyroid hormone (1-34).
The formulation was composed of teriparatide (0.75 mg), SNAC (sodium 8-N-(2-hydroxybenzoyl) aminocaprylate), soybean trypsin inhibitor (SBTI) and a small amount of magnesium stearate.
Tablets were administered in the morning after an 8-hour overnight fast and immediately followed by 150 ml of water. At each visit a standard meal was provided 3 hours after drug administration. […] There was a two weeks period between the visits.
To determine parathyroid hormone (1-34) (PTH(1-34)) concentrations, blood samples (4 ml each) were drawn via an indwelling catheter from the forearm vein at predetermined time points during each visit. The cannula was flushed with 1.5 ml normal saline after each sampling. In addition, to avoid sample dilution, 1 ml of blood was drawn and discarded before the next sample. The blood samples were taken at following times: baseline (predose), 10 minutes, 15 minutes, 20 minutes, 30 minutes, 45 minutes, 60 minutes, 75 minutes, 90 minutes, 105 minutes, 2 hours, 3 hours, 4 hours and 5 hours post-administration. Each blood sample was collected into a single tube containing EDTA (ethylenediaminetetraacetic acid) and placed on ice. Within 15 minutes of blood collection, samples were centrifuged for 10 minutes at 4° C. (2500 rotations per minute) and the plasma was separated and divided into two or three aliquots. Each aliquot was transferred into appropriately labeled polypropylene tubes and stored at approximately −20° C. pending analysis. PTH (1-34) levels were measured using an IDS-iSYS automated assay for the measurement of intact PTH (1-34) in human plasma or serum.

- decline of PTH levels following oral administration compared with subcutaneous administration ([2]; oral 1800 μg versus subcutaneous 20 μg teriparatide, FIG. 3): declined considerably more rapidly
- dose dependence of Cmax of PTH (1-34) following oral administration ([2]; oral doses 200, 400, 680, 1400 or 1800 μg teriparatide, FIG. 2): proportional to the dose
- oral dose providing a Cmax equivalent to that of subcutaneous administration of 20 μg teriparatide ([2]; oral tablets with SNAC, soybean trypsin inhibitor, magnesium stearate, FIG. 2): roughly 750 μg
- Cmax after 1st administration ([3]; oral tablet 0.75 mg teriparatide with SNAC, SBTI, magnesium stearate, fasted healthy volunteers, plasma PTH (1-34), one table row per individual subject (A, B, C)): 35 picogram/ml
- time for parathyroid hormone (1-34) levels to return to baseline levels after tablet administration ([3]; oral tablet 0.75 mg teriparatide, FIGS. 1A-1C): ≤ 60 min
- time after administration at which peak concentration (Cmax) occurred ([3]; oral tablet 0.75 mg teriparatide, all subjects and administrations, Table 3, FIGS. 1A-1C): ≤ 20 min
- Cmax after 2nd administration ([3]; same oral tablet 0.75 mg teriparatide, second visit two weeks later, plasma PTH (1-34), one table row per individual subject (A, B, C)): 36 picogram/ml
Compound: CC[C@H](C)[C@H](NC(=O)[C@H](CCC(=O)O)NC(=O)[C@H](CO)NC(=O)[C@@H](NC(=O)[C@@H](N)CO)C(C)C)C(=O)N[C@@H](CCC(N)=O)C(=O)N[C@@H](CC(C)C)C(=O)N[C@@H](CCSC)C(=O)N[C@@H](Cc1cnc[nH]1)C(=O)N[C@@H](CC(N)=O)C(=O)N[C@@H](CC(C)C)C(=O)NCC(=O)N[C@@H](CCCCN)C(=O)N[C@@H](Cc1cnc[nH]1)C(=O)N[C@@H](CC(C)C)C(=O)N[C@@H](CC(N)=O)C(=O)N[C@@H](CO)C(=O)N[C@@H](CCSC)C(=O)N[C@@H](CCC(=O)O)C(=O)N[C@@H](CCCN=C(N)N)C(=O)N[C@H](C(=O)N[C@@H](CCC(=O)O)C(=O)N[C@@H](Cc1c[nH]c2ccccc12)C(=O)N[C@@H](CC(C)C)C(=O)N[C@@H](CCCN=C(N)N)C(=O)N[C@@H](CCCCN)C(=O)N[C@@H](CCCCN)C(=O)N[C@@H](CC(C)C)C(=O)N[C@@H](CCC(N)=O)C(=O)N[C@@H](CC(=O)O)C(=O)N[C@H](C(=O)N[C@@H](Cc1cnc[nH]1)C(=O)N[C@@H](CC(N)=O)C(=O)N[C@@H](Cc1ccccc1)C(=O)O)C(C)C)C(C)C [teriparatide]
- plasma cAMP levels ([1]; oral administration of 680 μg teriparatide, compared with subcutaneous 20 μg): increased plasma cAMP levels to a similar degree
- plasma cAMP levels ([1]; subcutaneous administration of 20 μg teriparatide, compared with oral 680 μg): increased plasma cAMP levels to a similar degree
